Test results from patent US6512136B1, “Substituted 2-phenyl-1-(3,4-dihydroxy-5-nitrophenyl)-1-ethanones, their use in the treatment of some central and peripheral nervous system disorders and pharmaceutical compositions containing them” (Portela & C.A., S.A., priority 1998, dated 2003).

Assays:
rats = experiment: Behavioural testing: potentiation of amphetamine-induced hyperactivity (locomotor activity, stereotypies); format: in vivo, rat; conditions: for pattern of locomotor activity and stereotyped behaviour versus corresponding controls: given p.o. six hours before amphetamine challenge (0.5, 2.0, 4.0 mg/kg s.c.)
rat brain COMT = biological target: T1, rat brain COMT (Rattus norvegicus, UniProt P22734); experiment: In vitro COMT inhibition, rat brain homogenate (methylation of adrenaline to metanephrine); format: biochemical
T1 construct: Aliquots of 0.5 ml of liver and whole brain homogenates were preincubated; from tissue; host or cells: whole brain homogenate of male Wistar rats
T1 sequence (P22734 1-264): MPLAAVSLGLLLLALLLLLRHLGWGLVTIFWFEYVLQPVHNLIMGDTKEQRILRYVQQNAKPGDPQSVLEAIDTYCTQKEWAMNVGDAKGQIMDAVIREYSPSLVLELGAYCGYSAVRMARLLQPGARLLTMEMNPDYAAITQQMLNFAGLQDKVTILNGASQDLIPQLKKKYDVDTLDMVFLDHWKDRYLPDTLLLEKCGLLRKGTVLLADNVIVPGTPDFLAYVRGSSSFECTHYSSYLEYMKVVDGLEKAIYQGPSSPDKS

rat liver COMT = biological target: T2, rat liver COMT (Rattus norvegicus, UniProt P22734); experiment: In vitro COMT inhibition, rat liver homogenate (methylation of adrenaline to metanephrine); format: biochemical
T2 construct: Aliquots of 0.5 ml of liver and whole brain homogenates were preincubated; from tissue; host or cells: liver homogenate of male Wistar rats
T2 sequence (P22734 44-264 limits assumed): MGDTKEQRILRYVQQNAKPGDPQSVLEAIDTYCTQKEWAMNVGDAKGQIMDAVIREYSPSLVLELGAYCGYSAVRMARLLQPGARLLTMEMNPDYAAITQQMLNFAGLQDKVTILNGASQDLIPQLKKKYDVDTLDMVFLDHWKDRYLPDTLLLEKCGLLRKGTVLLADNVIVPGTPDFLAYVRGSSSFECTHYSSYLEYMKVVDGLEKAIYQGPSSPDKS

liver COMT = biological target: T3, liver COMT (Rattus norvegicus, UniProt P22734); experiment: Liver COMT activity in homogenates after administration of test compounds by gastric tube; format: in vivo; conditions: for % inhibition of COMT activity, liver, 0.5 h / % inhibition of COMT activity, liver, 1 h / % inhibition of COMT activity, liver, 3 h / % inhibition of COMT activity, liver, 6 h / % inhibition of COMT activity, liver, 9 h: rat liver homogenate, mean ± S.E.M., n=4; for % inhibition of COMT activity, liver, 0.5 h: 0.5 h after administration by gastric tube; for % inhibition of COMT activity, liver, 1 h: 1 h after administration by gastric tube; for % inhibition of COMT activity, liver, 3 h: 3 h after administration by gastric tube; for % inhibition of COMT activity, liver, 6 h: 6 h after administration by gastric tube; for % inhibition of COMT activity, liver, 9 h: 9 h after administration by gastric tube
T3 construct: Aliquots of 0.5 ml of liver and whole brain homogenates were preincubated; from tissue; host or cells: liver homogenate of male Wistar rats
T3 sequence (P22734 44-264 limits assumed): T2 sequence (P22734 44-264 limits assumed)

brain COMT = biological target: T4, brain COMT (Rattus norvegicus, UniProt P22734); experiment: Brain COMT activity in homogenates after administration of test compounds by gastric tube; format: in vivo; conditions: for % inhibition of COMT activity, brain, 0.5 h / % inhibition of COMT activity, brain, 1 h / % inhibition of COMT activity, brain, 3 h / % inhibition of COMT activity, brain, 6 h / % inhibition of COMT activity, brain, 9 h: rat brain homogenate, mean ± S.E.M., n=4; for % inhibition of COMT activity, brain, 0.5 h: 0.5 h after administration by gastric tube; for % inhibition of COMT activity, brain, 1 h: 1 h after administration by gastric tube; for % inhibition of COMT activity, brain, 3 h: 3 h after administration by gastric tube; for % inhibition of COMT activity, brain, 6 h: 6 h after administration by gastric tube; for % inhibition of COMT activity, brain, 9 h: 9 h after administration by gastric tube
T4 construct: Aliquots of 0.5 ml of liver and whole brain homogenates were preincubated; from tissue; host or cells: whole brain homogenate of male Wistar rats
T4 sequence (P22734 1-264): T1 sequence (P22734 1-264)

[1] = literature values (Dingemanse 1995; Keranen 1994); cited from earlier work
[2] = substrate: CNCC(O)c1ccc(O)c(O)c1; experiment: cells, lysate or membranes named; conditions: saturation experiments, 95% confidence intervals, pH 7.8
[3] = COMT inhibitor 30 mg/kg p.o. 6 h before amphetamine challenge (s.c.)

## CCN(CC)C(=O)/C(C#N)=C/c1cc(O)c(O)c([N+](=O)[O-])c1 [Entacapone, (E)-2-cyano-N,N-diethyl-3-(3,4-dihydroxy-5-nitrophenyl)acrylamide]
rats
  pattern of locomotor activity and stereotyped behaviour versus corresponding controls: same pattern of locomotor activity and stereotyped behaviour as their corresponding controls

## CNCC(O)c1ccc(O)c(O)c1 (centres unmarked) [adrenaline, reference compound]
Rat brain COMT; whole brain homogenate, saturation experiments
  Vmax of adrenaline O-methylation, brain: 1.35±0.02 nmol mg protein^−1 h^−‘
Rat liver COMT; liver homogenate, saturation experiments
  Vmax of adrenaline O-methylation, liver: 61.6±3.8 nmol mg protein^−1 h^−‘

## O=C(Cc1ccccc1)c1cc(O)c(O)c([N+](=O)[O-])c1 [Compound B, 1-(3,4-Dihydroxy-5-nitrophenyl)-2-phenyl-1-ethanone]
rats
  pattern of locomotor activity and stereotyped behaviour versus corresponding controls: same pattern of locomotor activity and stereotyped behaviour as their corresponding controls

## O=C(c1ccccc1)c1cc(O)c(O)c([N+](=O)[O-])c1 [Compound A, 3,4-dihydroxy-5-nitrobenzophenone]
Rat brain COMT
  IC50: 7.1 nM
Liver COMT
  % inhibition of COMT activity, liver, 0.5 h: 99.0 ± 0.2%
  % inhibition of COMT activity, liver, 1 h: 98.7 ± 0.2%
  % inhibition of COMT activity, liver, 3 h: 96.9 ± 2.5%
  % inhibition of COMT activity, liver, 6 h: 80.5 ± 7.3%
  % inhibition of COMT activity, liver, 9 h: 31.7 ± 5.5%
Rat liver COMT
  IC50: 935 nM
Brain COMT
  % inhibition of COMT activity, brain, 0.5 h: 96.3 ± 0.4%
  % inhibition of COMT activity, brain, 1 h: 96.8 ± 0.3%
  % inhibition of COMT activity, brain, 3 h: 97.0 ± 0.3%
  % inhibition of COMT activity, brain, 6 h: 85.8 ± 7.5%
  % inhibition of COMT activity, brain, 9 h: 34.9 ± 6.0%

## O=C(CCCCc1ccccc1)c1cc(O)c(O)c([N+](=O)[O-])c1 [E]
Rat brain COMT
  IC50: 6.7 nM
Liver COMT
  % inhibition of COMT activity, liver, 0.5 h: 99.2 ± 0.1%
  % inhibition of COMT activity, liver, 1 h: 98.9 ± 0.3%
  % inhibition of COMT activity, liver, 3 h: 88.1 ± 3.9%
  % inhibition of COMT activity, liver, 6 h: 36.0 ± 6.3%
  % inhibition of COMT activity, liver, 9 h: −4.0 ± 8.0%
Liver COMT; rat, comparison of brain and liver COMT inhibition (Table 2)
  inhibitory profile on brain versus liver COMT after oral administration: much more potent upon liver COMT than brain COMT
Rat liver COMT
  IC50: 1280 nM
Brain COMT
  % inhibition of COMT activity, brain, 0.5 h: 87.4 ± 1.3%
  % inhibition of COMT activity, brain, 1 h: 74.2 ± 4.2%
  % inhibition of COMT activity, brain, 3 h: 25.0 ± 3.1%
  % inhibition of COMT activity, brain, 6 h: −5.6 ± 7.5%
  % inhibition of COMT activity, brain, 9 h: −6.7 ± 5.0%

## O=C(CCc1ccccc1)c1cc(O)c(O)c([N+](=O)[O-])c1 [C]
Rat brain COMT
  IC50: 3.1 nM
Liver COMT
  % inhibition of COMT activity, liver, 0.5 h: 98.4 ± 0.3%
  % inhibition of COMT activity, liver, 1 h: 97.8 ± 0.2%
  % inhibition of COMT activity, liver, 3 h: 95.0 ± 0.7%
  % inhibition of COMT activity, liver, 6 h: 70.8 ± 12.8%
  % inhibition of COMT activity, liver, 9 h: 39.9 ± 11.1%
Rat liver COMT
  IC50: 829 nM
Brain COMT
  % inhibition of COMT activity, brain, 0.5 h: 89.9 ± 0.7%
  % inhibition of COMT activity, brain, 1 h: 86.2 ± 0.5%
  % inhibition of COMT activity, brain, 3 h: 59.8 ± 5.8%
  % inhibition of COMT activity, brain, 6 h: 33.4 ± 7.0%
  % inhibition of COMT activity, brain, 9 h: 0.4 ± 5.3%

## O=C(CCCc1ccccc1)c1cc(O)c(O)c([N+](=O)[O-])c1 [D]
Rat brain COMT
  IC50: 2.9 nM
Liver COMT
  % inhibition of COMT activity, liver, 0.5 h: 97.5 ± 0.1%
  % inhibition of COMT activity, liver, 1 h: 95.3 ± 0.8%
  % inhibition of COMT activity, liver, 3 h: 67.5 ± 7.8%
  % inhibition of COMT activity, liver, 6 h: 52.0 ± 9.5%
  % inhibition of COMT activity, liver, 9 h: 39.0 ± 13.2%
Rat liver COMT
  IC50: 1850 nM
Brain COMT
  % inhibition of COMT activity, brain, 0.5 h: 85.1 ± 1.7%
  % inhibition of COMT activity, brain, 1 h: 69.3 ± 5.1%
  % inhibition of COMT activity, brain, 3 h: 33.5 ± 4.4%
  % inhibition of COMT activity, brain, 6 h: 26.7 ± 4.0%
  % inhibition of COMT activity, brain, 9 h: 12.2 ± 5.8%

## Cc1ccc(C(=O)c2cc(O)c(O)c([N+](=O)[O-])c2)cc1 [Tolcapone, 3,4-dihydroxy4′-methyl-5-nitrobenzophenone, reference compound]
Liver COMT
  % inhibition of COMT activity, liver, 0.5 h: 100.0 ± 0.0%
  % inhibition of COMT activity, liver, 1 h: 99.9 ± 0.1%
  % inhibition of COMT activity, liver, 3 h: 98.0 ± 0.7%
  % inhibition of COMT activity, liver, 6 h: 94.1 ± 0.3%
  % inhibition of COMT activity, liver, 9 h: 67.0 ± 4.0%
Liver COMT; rat, po, read-out: ED50 for inhibiting liver COMT
  ED50: 0.7 ± 0.1 mg/kg
[1]
  half-life: 2 h
Brain COMT
  % inhibition of COMT activity, brain, 0.5 h: 98.9 ± 0.1%
  % inhibition of COMT activity, brain, 1 h: 98.7 ± 0.2%
  % inhibition of COMT activity, brain, 3 h: 97.0 ± 0.5%
  % inhibition of COMT activity, brain, 6 h: 85.8 ± 8.2%
  % inhibition of COMT activity, brain, 9 h: 77.5 ± 1.8%
Brain COMT; rat, oral, 6 h and 9 h, brain and liver
  inhibition in brain and liver COMT at 6 h and 9 h after administration: marked inhibition
Brain COMT; rat, po, read-out: ED50 for inhibiting brain COMT
  ED50: 1.6 ± 0.1 mg/kg
rats; [3]
  duration of stereotyped behavior in rats given 4.0 mg/kg amphetamine: increased two-fold
  locomotor activity in rats given 4.0 mg/kg amphetamine: marked decrease in locomotor activity
  locomotor activity in rats treated with 0.5 and 2.0 mg/kg amphetamine: significantly increase locomotor activity

## CC(N)Cc1ccccc1 (centres unmarked) [amphetamine]
rats; amphetamine 4.0 mg/kg s.c. alone
  duration of stereotypies during the 600 s observation period: 250 s
rats; amphetamine 0.5 and 2.0 mg/kg s.c. alone
  horizontal activity and rearing: dose-dependent increases

B1: rat brain COMT (Rattus norvegicus) (protein)
chain: T1 sequence (P22734 1-264)
[2]; other: whole brain homogenate
  Km: 0.7 µM

B2: rat liver COMT (Rattus norvegicus) (protein)
chain: T2 sequence (P22734 44-264 limits assumed)
[2]; other: liver homogenate
  Km: 238.5 (128.5; 348.5) μM
